The test has as its target JAK2 (JH1 domain-catalytic, Y1007F, Y1008F) kinase (Homo sapiens (Human), UniProt O60674, Y1007F/Y1008F). The test can be described thus: JAK2 JH1 Domain Binding Assay. As to conditions: qPCR readout. The procedure, abridged:
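JH1 catalytic domain (Y1007F/Y1008F) expressed as NFkB DNA-binding-domain fusion in HEK293 cells, DNA-tagged. Competition with immobilized biotinylated ligand on streptavidin beads, 1 h at RT in PBS/Tween/BSA/DTT; bound kinase eluted with free ligand and quantified by qPCR.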
(Quantitative PCR measures a nucleic acid by following its amplification.)

The record followed here is patent publication US20240116892A1, “HETEROCYCLIC AMIDE AND UREA COMPOUNDS AS JAK2 INHIBITORS” (Ajax Therapeutics, Inc., priority 2022, published 2024).

Sequence of JAK2 (JH1 domain-catalytic, Y1007F, Y1008F) kinase (O60674 849-1124 Y1007F/Y1008F): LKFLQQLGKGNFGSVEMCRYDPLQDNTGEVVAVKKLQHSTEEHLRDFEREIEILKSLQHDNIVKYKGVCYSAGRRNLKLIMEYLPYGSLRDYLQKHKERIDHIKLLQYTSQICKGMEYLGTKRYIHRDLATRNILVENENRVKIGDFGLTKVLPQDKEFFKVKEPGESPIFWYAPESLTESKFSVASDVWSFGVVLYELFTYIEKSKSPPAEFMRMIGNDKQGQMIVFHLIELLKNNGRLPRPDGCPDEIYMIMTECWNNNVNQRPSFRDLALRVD

`COCc1cc2nc(N3CC[C@H](N(C)C(=O)Nc4cc(C(F)(F)F)cn(C)c4=O)C[C@@H]3C)cnc2[nH]1` [Example I-127-a, 1-((2S,4S)-1-(6-(methoxymethyl)-5H-pyrrolo[2,3-b]pyrazin-2-yl)-2-methylpiperidin-4-yl)-1-methyl-3-(1-methyl-2-oxo-5-(trifluoromethyl)-1,2-dihydropyridin-3-yl)urea]: the Kd is 50 to 1000 nM. Turning to `COCc1cc2nc(N3CC[C@H](N(C)C(=O)Nc4cc(C(F)(F)F)cn(C)c4=O)[C@@H](OC)C3)cnc2[nH]1` [Example I-113-a, 1-((3S,4S)-3-methoxy-1-(6-(methoxymethyl)-5H-pyrrolo[2,3-b]pyrazin-2-yl)piperidin-4-yl)-1-methyl-3-(1-methyl-2-oxo-5-(trifluoromethyl)-1,2-dihydropyridin-3-yl)urea], the Kd lay in the range of 50 to 1000 nM. With `COc1cc(NC(=O)C2CC2)ncc1N1CCC(N(C)C(=O)Nc2cc(C(F)(F)F)cn(C)c2=O)CC1` [Example I-137, N-(4-methoxy-5-(4-(1-methyl-3-(1-methyl-2-oxo-5-(trifluoromethyl)-1,2-dihydropyridin-3-yl)ureido)piperidin-1-yl)pyridin-2-yl)cyclopropanecarboxamide], the Kd lay in the range of 10 to 50 nM. The same measure for `CO[C@@H]1CN(c2cnc3[nH]nc(N(C)C)c3c2)CC[C@H]1N(C)C(=O)Nc1cc(C(F)(F)F)cn(C)c1=O` [Example I-115-a, 1-((3R,4R)-1-(3-(dimethylamino)-1/-pyrazolo[3,4-b]pyridin-5-yl)-3-methoxypiperidin-4-yl)-1-methyl-3-(1-methyl-2-oxo-5-(trifluoromethyl)-1,2-dihydropyridin-3-yl)urea]: 10 to 50 nM; for `C[C@@H]1CN(c2cnc3[nH]ncc3c2)CC[C@H]1N(C)C(=O)Nc1cc(C(F)(F)F)cn(C)c1=O` [Example I-74-b, 1-methyl-1-((3R,4R)-3-methyl-1-(1H-pyrazolo[3,4-b]pyridin-5-yl)piperidin-4-yl)-3-(1-methyl-2-oxo-5-(trifluoromethyl)-1,2-dihydropyridin-3-yl)urea]: 50 to 1000 nM. In the case of `Cn1cc(C(F)(F)F)cc(NC(=O)OC2(C)CCN(c3cnc4[nH]ccc4n3)CC2)c1=O` [Example I-71, 4-methyl-1-(5H-pyrrolo[2,3-b]pyrazin-2-yl)piperidin-4-yl (1-methyl-2-oxo-5-(trifluoromethyl)-1,2-dihydropyridin-3-yl)carbamate], the Kd fell in the range of 50 to 1000 nM. Molecule `C[C@@H]1C[C@H](N(C)C(=O)Nc2cc(C(F)(F)F)cn(C)c2=O)CCN1c1cnc2[nH]ncc2c1` [Example I-105-b, 1-methyl-1-((2R,4R)-2-methyl-1-(1H-pyrazolo[3,4-b]pyridin-5-yl)piperidin-4-yl)-3-(1-methyl-2-oxo-5-(trifluoromethyl)-1,2-dihydropyridin-3-yl)urea] came in with a Kd of less than 10 nM.

Molecule `Cc1cc(NC(=O)N(C)C2CCN(c3cnc4[nH]ncc4c3)CC2)cc(C(F)(F)F)c1` [Example I-17, 1-(1-(1H-pyrazolo[3,4-b]pyridin-5-yl)piperidin-4-yl)-1-methyl-3-(3-methyl-5-(trifluoromethyl)phenyl)urea] returned a Kd of less than 10 nM. Molecule `CO[C@H]1C[C@@H](n2[nH]c3ncc(N4CCC(N(C)C(=O)Nc5cc(C(F)(F)F)cn(C)c5=O)CC4)cc3c2=O)C1` [Example I-130, 1-(1-(2-((1s,3s)-3-methoxycyclobutyl)-3-oxo-2,3-dihydro-1H-pyrazolo[3,4-b]pyridin-5-yl)piperidin-4-yl)-1-methyl-3-(1-methyl-2-oxo-5-(trifluoromethyl)-1,2-dihydropyridin-3-yl)urea] showed a Kd of 50 to 1000 nM.

As for `CN(C(=O)Nc1cc(C(F)(F)F)cn(C)c1=O)C1CCN(c2cnc3[nH]cnc3c2)CC1` [Example I-38, 1-(1-(3H-imidazo[4,5-b]pyridin-6-yl)piperidin-4-yl)-1-methyl-3-(1-methyl-2-oxo-5-(trifluoromethyl)-1,2-dihydropyridin-3-yl)urea], the Kd fell in the range of 10 to 50 nM. With `CN(C(=O)Nc1cc(C(F)(F)F)cn(C)c1=O)C1CCN(c2cnc3[nH]ccc3c2)CC1` [Example I-21, 1-(1-(1H-pyrrolo[2,3-b]pyridin-5-yl)piperidin-4-yl)-1-methyl-3-(1-methyl-2-oxo-5-(trifluoromethyl)-1,2-dihydropyridin-3-yl)urea], the Kd is less than 10 nM.

`CC(=O)N1CCC(c2n[nH]c3ncc(N4CC[C@@H](N(C)C(=O)Nc5cc(C(F)(F)F)cn(C)c5=O)C(F)(F)C4)cc23)CC1` (single isomer, unassigned) [Example I-123-a] returned a Kd of less than 10 nM. On to `COc1n[nH]c2ncc(N3CC[C@H](N(C)C(=O)Nc4cc(C(F)(F)F)cn(C)c4=O)[C@H](C)C3)cc12` [Example I-131-a, 1-((3R,4S)-1-(3-methoxy-1H-pyrazolo[3,4-b]pyridin-5-yl)-3-methylpiperidin-4-yl)-1-methyl-3-(1-methyl-2-oxo-5-(trifluoromethyl)-1,2-dihydropyridin-3-yl)urea], for which the Kd is less than 10 nM. The same measure for `Cc1c[nH]c2ncc(N3CCC(N(C)C(=O)Nc4cc(C(F)(F)F)cn(C)c4=O)C(F)(F)C3)nc12` (single isomer, unassigned) [Example I-33-b, (S)- or (R)-1-(3,3-difluoro-1-(7-methyl-5H-pyrrolo[2,3-b]pyrazin-2-yl)piperidin-4-yl)-1-methyl-3-(1-methyl-2-oxo-5-(trifluoromethyl)-1,2-dihydropyridin-3-yl)urea]: less than 10 nM. As to `CN(C(=O)Nc1cc(C(F)(F)F)cn(C)c1=O)C1(C)CCN(c2cnc3[nH]ccc3n2)CC1` [Example I-51, 1-methyl-1-(4-methyl-1-(5H-pyrrolo[2,3-b]pyrazin-2-yl)piperidin-4-yl)-3-(1-methyl-2-oxo-5-(trifluoromethyl)-1,2-dihydropyridin-3-yl)urea], the Kd is 10 to 50 nM. `[2H]C1([2H])C[C@H](N(C)C(=O)Nc2cc(C(F)(F)F)cn(C)c2=O)[C@@H](OC)C([2H])([2H])N1c1cnc2[nH]ncc2c1` [Example I-153-b, 1-((3S,4S)-3-methoxy-1-(1H-pyrazolo[3,4-b]pyridin-5-yl)piperidin-4-yl-2,2,6,6-d4)-1-methyl-3-(1-methyl-2-oxo-5-(trifluoromethyl)-1,2-dihydropyridin-3-yl)urea] returned a Kd of 10 to 50 nM.

As to `CC(=O)Nc1ccc(N2CCC(N(C)C(=O)Nc3cc(C(F)(F)F)cn(C)c3=O)CC2)cn1` [Example I-20, N-(5-(4-(1-methyl-3-(1-methyl-2-oxo-5-(trifluoromethyl)-1,2-dihydropyridin-3-yl)ureido)piperidin-1-yl)pyridin-2-yl)acetamide], the Kd is less than 10 nM. Regarding `CN(C(=O)Nc1cc(C(F)(F)F)cn(C)c1=O)[C@@H]1CCN(c2cnc3[nH]ncc3c2)C[C@H]1OC(F)F.CN(C(=O)Nc1cc(C(F)(F)F)cn(C)c1=O)[C@H]1CCN(c2cnc3[nH]ncc3c2)C[C@@H]1OC(F)F` (mixture of isomers) [Example I-167-a, 1-((3S,4S)-3-(difluoromethoxy)-1-(1H-pyrazolo[3,4-b]pyridin-5-yl)piperidin-4-yl)-1-methyl-3-(1-methyl-2-oxo-5-(trifluoromethyl)-1,2-dihydropyridin-3-yl)urea and 1-((3R,4R)-3-(difluoromethoxy)-1-(1H-pyrazolo[3,4-b]pyridin-5-yl)piperidin-4-yl)-1-methyl-3-(1-methyl-2-oxo-5-(trifluoromethyl)-1,2-dihydropyridin-3-yl)urea], the Kd was 50 to 1000 nM.

One may read the Kd as the concentration at which binding is half-saturated.
